Data as given in patent US20260028390A1, “ALPHA1-ANTITRYPSIN FOR USE IN THE TREATMENT OF DISEASES OR DISORDERS OF THE NERVOUS SYSTEM SUCH AS CHRONIC INFLAMMATORY DEMYELINATING POLYNEUROPATHY” (Ageronix SA, priority 2022, published 2026).
Where “and” joins values, the source holds several entries; their conditions need not be identical. Identical values can stand only once.

Assays:
[1] = Plasma AAT levels, CMT1A mouse study (50 mg/kg twice daily); type: in vivo; conditions: CMT1A + AAT group
Method: (§1) Animals were split in 3 groups (wild-type control (subcutaneous 0.9% NaCl), CMT1A-vehicle (subcutaneous 0.9% NaCl), CMT1A-human alpha-1 antitrypsin (subcutaneous, twice daily, 50 mg/kg per injection)) of 3 mice each (3 weeks old males of 18±2.5 g at the beginning of study) and all went through the following protocol after 7 days of acclimation on site.
Plasma levels of AAT were evaluated every 5 days from the first day of treatment to the last treatment day.
AAT was not detected in plasma of the wild type control and CMT1A mice treated with vehicle at the analyzed time points (day 14, day 19, day 24 and day 29). The AAT was detected in plasma of CMT1A+AAT group at a mean of 6.07 μg/mL, 6.99 μg/mL, 8.14 μg/mL and 5.22 μg/mL at day 14, day 19, day 24 and day 29 respectively.

[2] = test system: C3-PMP22 transgenic mice (CMT1A); assay: Grip strength test, CMT1A mouse study (50 mg/kg twice daily); type: in vivo; conditions: for Grip strength (Mean ± SEM) / Grip strenght, Mean/animal / Grip strenght, set 1, individual animals / Grip strenght, set 2, individual animals / Grip strenght, set 3, individual animals: CMT1A + AAT
Description: (§2) As a murine model of CMT1A we used C3-PMP22 transgenic mice (B6.Cg-Tg(PMP22)C3Fbas/J, The Jackson Laboratory) which express three copies of a wild-type human peripheral myelin protein 22 (PMP22) gene (Verhamme, Camiel, et al. Journal of Neuropathology & Experimental Neurology 70.5 (2011): 386-398). Mice were housed in macrolon cages with filter hoods, in a continuously air-filtered room, thereby avoiding contamination. During experiments, paired animals were caged at a constant temperature with a day/night cycle of 12/12 hours. Animals were fed (control tap water and nutrition) ad libitum. Animal protocol is approved by the Animal Studies Committee of Languedoc Roussillon. This protocol and the laboratory procedures comply with French legislation, which implements the European Directives (Reference Number: D3417223, APAFIS #23920-2020020320279696 v3). Animal health was followed on a daily basis to ensure that only animals in good health enter the testing procedures and follow up the study.
as §1
(§3) On the first and last day of treatment, the neuromuscular performance of animals was tested with a rotarod test, grip test and sciatic nerve electrophysiology test. After the last treatment at 8 weeks, these tests were repeated, and animals were sacrificed and the left sciatic nerve was sampled for histological evaluation of the number and size of […].
Grip strength test measures neuromuscular strength by assessing the animal's grasp of a metal grid. […] At the baseline, the differences of grip strengths between groups were not statistically significant.

[3] = test system: Human Schwann cells; assay: TNFα-induced Schwann cell activation, target gene expression by qPCR; type: cell-based; conditions: AAT 50 μM pre-treatment 24 hours, TNFα 10 ng/mL 24 hours
Method: Human Schwann cells (P10351, Innoprot) were seeded in 12 well plates at 120000 cells per well in DMEM. Cells were pre-treated with either buffer (controls) or AAT (50 μM) for 24 hours before stimulation by TNFα (10 ng/mL). The plates were then incubated at 37° C. for 24 hours. The RNA was extracted and selected target gene expression was measured by qPCR.
The genes evaluated for their regulation included the NF-κB early gene response NFKBIA, as well as the TNFα and TNFR1 genes. Expression of the gene coding for the IL-6 pro-inflammatory cytokine was also evaluated.

[4] = test system: C3-PMP22 transgenic mice (CMT1A); assay: Rotarod test, CMT1A mouse study (50 mg/kg twice daily); type: in vivo; conditions: for Rotarod latency, Mean/animal / Rotarod latency, set 1, individual animals / Rotarod latency, set 2, individual animals / Rotarod latency, set 3, individual animals: CMT1A + AAT; for Rotarod latency (Mean ± SEM): CMT1A mice
Description: as §2, §1, §3
The rotarod test measures neuromuscular coordination by assessing the capacity of the animals to stay in balance on a rotating cylinder. Similar rotarod latency was observed between groups at the baseline (6 weeks old).

[5] = test system: SH-SY5Y cells; assay: Cell viability assay (CCK-8) of SH-SY5Y treated with 6-OHDA; type: cell-based; conditions: 6-OHDA combined with AAT 25 μM, CCK-8 absorbance 450 nm
Method: SH-SY5Y cells, which are commonly used to model neurodegenerative disorders, were used to produce an in vitro Parkinson's model (Que R, et al., 2021, Front. Immunol. 12). Cells were cultured in DMEMF12/Glutamax supplemented with 10% FBS.
Cells were treated for 24 hours with the neurotoxin 6-hydroxydopamine (6-OHDA, Sigma Aldrich 162957) at 50, 100 μM concentrations alone or in combination with AAT 25 μM (AAT plasma derived, Sigma Aldrich batch A9024). Cells treated with AAT alone or in combination with 6-OHDA for 24 hours, were then incubated with fresh AAT for additional 24 hours. Control cells were treated with PBS.
At day 0 cells were plated in equally number in 24-well plate, the day after they were treated as described above, and final total cell count was performed at day 4 of culture (cell growth). Cell viability was assessed with Cell Counting Kit-8 (CCK-8; Sigma Aldrich 96992). After treatments, cells were incubated with 10 μl of CCK-8 solution for 2 hours in the incubator. Absorbance was measured at 450 nm using SpectraMax iD3 Microplate Reader. Experiments were performed in triplicate.

[6] = CMT1A mice treated with AAT, 8 weeks old

Substance: alpha1-antitrypsin (AAT) protein
- AAT detected in plasma (mean) ([1]; day 14): 6.07 µg/mL
- AAT detected in plasma (mean) ([1]; day 19): 6.99 µg/mL
- AAT detected in plasma (mean) ([1]; day 24): 8.14 µg/mL
- AAT detected in plasma (mean) ([1]; day 29): 5.22 µg/mL
- Grip strength (Mean ± SEM) ([2]; 6 weeks old): 5.86 ± 0.57 newtons
- Grip strenght, Mean/animal ([2]; 6 weeks old (baseline)): 5.10 Newtons and 6.97 Newtons and 5.51 Newtons
- Grip strenght, set 1, individual animals ([2]; 6 weeks old (baseline)): 5.84 Newtons and 7.10 Newtons and 5.94 Newtons
- Grip strenght, set 2, individual animals ([2]; 6 weeks old (baseline)): 7.62 Newtons and 7.19 Newtons and 3.08 Newtons
- Grip strenght, set 3, individual animals ([2]; 6 weeks old (baseline)): 1.82 Newtons and 6.62 Newtons and 7.52 Newtons
- Grip strenght, Mean/animal ([2]; 8 weeks old): 5.45 Newtons and 4.86 Newtons and 3.88 Newtons
- Grip strenght, set 1, individual animals ([2]; 8 weeks old): 6.55 Newtons and 4.01 Newtons and 2.76 Newtons
- Grip strenght, set 2, individual animals ([2]; 8 weeks old): 4.38 Newtons and 6.93 Newtons and 3.67 Newtons
- Grip strenght, set 3, individual animals ([2]; 8 weeks old): 5.43 Newtons and 3.63 Newtons and 5.21 Newtons
- Grip strength (Mean ± SEM) ([2]; 8 weeks old): 4.73 ± 0.46 newtons
- grip strength compared to the control group [2, 6]: improvement
- NF-κb pathway transcripts [3]: downregulated
- expression of genes modulated by TNF-induced oxidative stress response [3]: inhibited
- Rotarod latency, Mean/animal ([4]; 6 weeks old (baseline)): 84.36 s and 71.19 s and 72.91 s
- Rotarod latency, set 1, individual animals ([4]; 6 weeks old (baseline)): 85.0 s and 51.4 s and 59.6 s
- Rotarod latency, set 2, individual animals ([4]; 6 weeks old (baseline)): 102.6 s and 93.4 s and 92.1 s
- Rotarod latency, set 3, individual animals ([4]; 6 weeks old (baseline)): 65.5 s and 68.8 s and 67.1 s
- Rotarod latency, Mean/animal ([4]; 8 weeks old): 49.76 s and 64.65 s and 56.12 s
- Rotarod latency, set 1, individual animals ([4]; 8 weeks old): 62.1 s and 83.2 s and 46.0 s
- Rotarod latency, set 2, individual animals ([4]; 8 weeks old): 35.7 s and 39.5 s and 46.0 s
- Rotarod latency, set 3, individual animals ([4]; 8 weeks old): 51.5 s and 71.3 s and 76.4 s
- rotarod latency compared to the control group [4, 6]: improvement
- Rotarod latency (Mean ± SEM) ([4]; 6 weeks old (baseline)): 76.15 ± 4.13 s
- Rotarod latency (Mean ± SEM) ([4]; 8 weeks old, AAT 50 mg/kg sc twice daily): 56.84 ± 4.31 s
- cell count and viability compared to 6-OHDA treatment alone [5]: significantly enhanced
